The values that follow come from ChEMBL document CHEMBL1143998, “Binding to human serum albumin of zidovudine (AZT) and novel AZT derivatives. Experimental and theoretical analyses” (Bioorg Med Chem, 2008).

Format in all cases: ADME
Conditions in all cases: isolated protein

Series [1] has as its target T1, Albumin (Homo sapiens, UniProt P02768). The series is described as follows: Binding affinity to defatted human serum albumin relative to zidovudine.
For series [2], the target named is T1, Albumin. Briefly: Binding affinity to defatted human serum albumin.
In series [3] the target is T1, Albumin. Briefly: Binding affinity to defatted human serum albumin in presence of salicylic acid.
Series [4] addresses T1, Albumin. The series is described as follows: Binding affinity to fatty acid complexed human serum albumin.

T1 sequence (P02768 whole entry): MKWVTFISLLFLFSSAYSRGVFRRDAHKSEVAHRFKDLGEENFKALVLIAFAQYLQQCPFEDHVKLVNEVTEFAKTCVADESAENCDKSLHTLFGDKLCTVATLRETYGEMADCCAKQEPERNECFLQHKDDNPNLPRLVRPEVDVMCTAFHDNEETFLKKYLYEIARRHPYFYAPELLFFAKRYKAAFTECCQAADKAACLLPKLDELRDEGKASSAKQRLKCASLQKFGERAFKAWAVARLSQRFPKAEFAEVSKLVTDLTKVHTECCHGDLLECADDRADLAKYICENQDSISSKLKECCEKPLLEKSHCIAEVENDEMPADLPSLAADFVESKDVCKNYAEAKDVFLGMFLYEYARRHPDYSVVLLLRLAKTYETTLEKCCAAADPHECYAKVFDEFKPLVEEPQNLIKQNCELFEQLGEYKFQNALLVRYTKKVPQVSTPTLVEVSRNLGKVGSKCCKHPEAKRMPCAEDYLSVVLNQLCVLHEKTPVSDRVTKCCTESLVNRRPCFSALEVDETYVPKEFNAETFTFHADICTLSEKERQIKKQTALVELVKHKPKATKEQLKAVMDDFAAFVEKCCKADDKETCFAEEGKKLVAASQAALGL

`Cc1cn([C@H]2C[C@H](N=[N+]=[N-])[C@@H](COC(=O)C(=O)N[C@@H](Cc3c[nH]c4ccccc34)C(=O)O)O2)c(=O)[nH]c1=O`: the Activity at Albumin [1] is given as 1.73; at Albumin [2], 20.5%; at Albumin [3], 17.6%; on Albumin [4] it was 23.7%. Moreover, the Ka is 1803.2 L/mol at Albumin [2], 1519.8 L/mol at Albumin [3] and 2172.1 L/mol at Albumin [4].

Turning to `Cc1cn([C@H]2C[C@H](N=[N+]=[N-])[C@@H](COC(=O)C(=O)N[C@@H](Cc3ccccc3)C(=O)O)O2)c(=O)[nH]c1=O`, the Activity on Albumin [1] worked out at 1.12; on Albumin [2], 13.6%; on Albumin [3] it was 8.3%; at Albumin [4] it was 5.5%. For the same compound, the Ka on Albumin [2] is reported as 1174.4 L/mol; at Albumin [3] it was 716.7 L/mol; on Albumin [4], 436.6 L/mol.

Consider `Cc1cn([C@H]2C[C@H](N=[N+]=[N-])[C@@H](COC(=O)C(=O)N3CCC[C@H]3C(=O)O)O2)c(=O)[nH]c1=O`, for which the Activity is 0.9 on Albumin [1], 11.9% on Albumin [2], 9.4% at Albumin [3] and 16.1% on Albumin [4]. Also, the results for the Ka at Albumin [2], at Albumin [3] and on Albumin [4] were 944.6 L/mol, 811.7 L/mol and 1341.9 L/mol, respectively.

As for `Cc1cn([C@H]2C[C@H](N=[N+]=[N-])[C@@H](COC(=O)C(=O)O)O2)c(=O)[nH]c1=O`, the Activity at Albumin [1] was found to be 5.93; on Albumin [2] it was 47%; on Albumin [3] it was 7%; on Albumin [4], 10.4%. For the same compound, the Ka at Albumin [2] amounted to 6201.3 L/mol; at Albumin [3], 604.5 L/mol; at Albumin [4], 811.7 L/mol.

As for `Cc1cn([C@H]2C[C@H](N=[N+]=[N-])[C@@H](COC(=O)c3ccncc3)O2)c(=O)[nH]c1=O`, the Activity at Albumin [1] turned out to be 1.64; on Albumin [2], 19.8%; at Albumin [4], 38.8%. Further, the Ka stood at 1709.8 L/mol on Albumin [2] and 3277.3 L/mol on Albumin [4].

Turning to `Cc1cn([C@H]2C[C@H](N=[N+]=[N-])[C@@H](COC(=O)C(=O)N[C@H](C(=O)O)C(C)C)O2)c(=O)[nH]c1=O`, the Activity on Albumin [1] came to 1.47; on Albumin [2] it was 17.4%; on Albumin [3], 15.2%; at Albumin [4], 11.9%. In addition, the Ka at Albumin [2] was determined as 1535 L/mol; at Albumin [3] it was 1312.6 L/mol; on Albumin [4], 944.6 L/mol.

Turning to `Cc1cn([C@H]2C[C@H](N=[N+]=[N-])[C@@H](COC(=O)C(=O)N[C@@H](CC(C)C)C(=O)O)O2)c(=O)[nH]c1=O`, the Activity on Albumin [1] worked out at 2.35; at Albumin [2], 26.5%; on Albumin [3], 5.2%; at Albumin [4] it was 8.9%. For the same compound, the Ka on Albumin [2] was determined as 2457 L/mol; at Albumin [3] it was 449 L/mol; on Albumin [4], 683.2 L/mol.

Turning to `CC[C@H](C)[C@H](NC(=O)C(=O)OC[C@H]1O[C@@H](n2cc(C)c(=O)[nH]c2=O)C[C@@H]1N=[N+]=[N-])C(=O)O`, the Activity was 3.6 at Albumin [1], 35.2% at Albumin [2], 4.6% on Albumin [3] and 7.6% at Albumin [4]. Further, the results for the Ka on Albumin [2], at Albumin [3] and at Albumin [4] were 3765.4 L/mol, 397.2 L/mol and 575.2 L/mol, respectively.

Regarding `Cc1cn([C@H]2C[C@H](N=[N+]=[N-])[C@@H](COC(=O)C(=O)N[C@@H](Cc3ccc(O)cc3)C(=O)O)O2)c(=O)[nH]c1=O`, the Activity on Albumin [1] turned out to be 1.17; at Albumin [2] it was 14.9%; on Albumin [3], 9.4%; at Albumin [4] it was 10.4%. Further, the Ka at Albumin [2] is 1224.4 L/mol; on Albumin [3] it was 811.7 L/mol; at Albumin [4], 890.9 L/mol.
